The species entered for test [1] is Homo sapiens. The test is described as follows: Binding affinity to recombinant human STING R232H variant C-terminal domain (139 to 378 residues) expressed in Escherichia coli BL21 (DE3) cells assessed as thermal stabilization by measuring change in melting temperature at 50 uM incubated at 25 to 95 degreeC for 45 mins by SYPRO orange dye based fluorescence analysis.

For test [2], the target named is T1, Stimulator of interferon genes protein (Homo sapiens, UniProt Q86WV6). Description: Agonist activity at STING in PMA-differentiated wildtype human THP1-Blue ISG cells harboring IRF-inducible SEAP reporter construct incubated for 24 hrs by QUANTI-Blue assay. In kind it is cell-based.
Target sequence in this assay (Q86WV6 whole entry, the tested form may be a part): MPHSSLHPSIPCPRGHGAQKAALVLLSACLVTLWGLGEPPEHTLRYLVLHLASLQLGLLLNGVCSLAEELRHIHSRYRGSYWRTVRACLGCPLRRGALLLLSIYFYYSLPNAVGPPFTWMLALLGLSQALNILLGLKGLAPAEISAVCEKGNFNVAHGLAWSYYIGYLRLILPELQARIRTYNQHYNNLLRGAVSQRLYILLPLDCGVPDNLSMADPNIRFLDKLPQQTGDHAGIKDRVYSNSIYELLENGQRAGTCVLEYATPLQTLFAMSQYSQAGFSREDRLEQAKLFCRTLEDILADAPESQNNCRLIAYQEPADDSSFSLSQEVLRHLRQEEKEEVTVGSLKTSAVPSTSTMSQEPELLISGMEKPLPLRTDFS
The subject of test [3] is Stimulator of interferon genes protein (Homo sapiens), Q86WV6 [UNDEFINED MUTATION]. The test is described as follows: Binding affinity to recombinant wildtype human STING R232 variant C-terminal domain (139 to 378 residues) expressed in Escherichia coli BL21 (DE3) cells assessed as thermal stabilization by measuring change in melting temperature at 50 uM incubated at 25 to 95 degreeC for 45 mins by SYPRO orange dye based fluorescence analysis.

The species entered for test [4] is Homo sapiens. Description: Binding affinity to recombinant human STING G230A and R293Q variant C-terminal domain (139 to 378 residues) expressed in Escherichia coli BL21 (DE3) cells assessed as thermal stabilization by measuring change in melting temperature at 50 uM incubated at 25 to 95 degreeC for 45 mins by SYPRO orange dye based fluorescence analysis.
The species named for test [5] is Homo sapiens. Description: Binding affinity to recombinant human STING R293Q variant C-terminal domain (139 to 378 residues) expressed in Escherichia coli BL21 (DE3) cells assessed as thermal stabilization by measuring change in melting temperature at 50 uM incubated at 25 to 95 degreeC for 45 mins by SYPRO orange dye based fluorescence analysis.
Test [6] addresses T2, Stimulator of interferon genes protein (Mus musculus) (UniProt Q3TBT3).
T2 sequence (whole entry): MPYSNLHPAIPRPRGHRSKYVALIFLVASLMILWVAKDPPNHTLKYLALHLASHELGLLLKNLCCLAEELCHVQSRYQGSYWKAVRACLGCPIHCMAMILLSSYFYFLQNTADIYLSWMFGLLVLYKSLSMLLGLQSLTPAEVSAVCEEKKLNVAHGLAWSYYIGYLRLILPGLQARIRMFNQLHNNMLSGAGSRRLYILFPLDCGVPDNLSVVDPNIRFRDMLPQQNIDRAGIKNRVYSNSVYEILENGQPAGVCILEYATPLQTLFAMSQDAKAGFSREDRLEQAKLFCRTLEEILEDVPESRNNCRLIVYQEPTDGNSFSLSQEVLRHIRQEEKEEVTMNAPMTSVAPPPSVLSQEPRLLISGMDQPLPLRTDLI
The test is described as follows: Binding affinity to recombinant 6-His tagged mouse STING C-terminal domain (144 to 378 residues) expressed in Escherichia coli BL21 (DE3) cells assessed as thermal stabilization by measuring change in melting temperature at 50 uM incubated at 25 to 95 degreeC for 45 mins by SYPRO orange dye based fluorescence analysis.

For test [7], the target named is T1, Stimulator of interferon genes protein. Description: Competitive inhibition of 5-FAM labelled diABZI binding to recombinant wildtype human STING R232 variant C-terminal domain (139 to 378 residues) expressed in Escherichia coli BL21 (DE3) cells incubated for 10 mins by fluorescence polarization assay. Background: Polarisation of emitted light reports the rotation of a fluorescent probe.
Target sequence in this assay (Q86WV6 whole entry, looked up, stated change not applied, the tested form may be a part): as the sequence (Q86WV6 whole entry, the tested form may be a part) above

Test [8] can be described thus: Competitive inhibition of 5-FAM labelled diABZI binding to recombinant human STING R232H variant C-terminal domain (139 to 378 residues) expressed in Escherichia coli BL21 (DE3) cells incubated for 10 mins by fluorescence polarization assay.
Test [9] can be described thus: Competitive inhibition of 5-FAM labelled diABZI binding to recombinant human STING G230A and R293Q variant C-terminal domain (139 to 378 residues) expressed in Escherichia coli BL21 (DE3) cells incubated for 10 mins by fluorescence polarization assay.
A short description of test [10]: Competitive inhibition of 5-FAM labelled diABZI binding to recombinant human STING R293Q variant C-terminal domain (139 to 378 residues) expressed in Escherichia coli BL21 (DE3) cells incubated for 10 mins by fluorescence polarization assay.
The target of test [11] is T3, Stimulator of interferon genes protein (Mus musculus, UniProt Q3TBT3).
T3 sequence (Q3TBT3 whole entry): T2 sequence (whole entry)
Description: Competitive inhibition of 5-FAM labelled diABZI binding to recombinant 6-his tagged mouse STING C-terminal domain (144 to 378 residues) expressed in Escherichia coli BL21 (DE3) cells incubated for 10 mins by fluorescence polarization assay.

In ChEMBL document CHEMBL5360661, “Structure-Activity Relationship Study of 1H-Pyrrole-3-carbonitrile Derivatives as STING Receptor Agonists” (ACS Med Chem Lett, 2023) one finds ΔTm, EC50 and IC50 data, which are given here for 21 compounds.

Each structure is given as a SMILES string. Bounds are passed on as bounds.

Stimulator of interferon genes protein (Homo sapiens), Q86WV6 [UNDEFINED MUTATION], sequence (Q86WV6 whole entry, looked up, stated change not applied, the tested form may be a part): as the sequence (Q86WV6 whole entry, the tested form may be a part) above

One may read the ΔTm as the shift of the melting midpoint relative to a reference. One may read the EC50 as the concentration needed to bring the measured effect to its halfway point. A lower EC50 goes with greater potency. As for `COc1cc(NC(=O)c2ccc(-n3ccc(C#N)c3)nn2)c(C(=O)O)cc1F`, the ΔTm in the test filed under Homo sapiens [1] is 4 °C. Moreover, in test [2], the EC50 was 9.75 µM.

Regarding `CC#Cc1cc(NC(=O)c2ccc(-n3ccc(C#N)c3)nn2)c(C(=O)O)cc1F`, in the test filed under Homo sapiens [1], the ΔTm was 0.5 °C. The EC50 in test [2] is 35 µM.

`N#Cc1ccn(-c2ccc(C(=O)Nc3cc(C#CC4CC4)c(F)cc3C(=O)O)nn2)c1`: the ΔTm in the test filed under Homo sapiens [1] is -0.5 °C. Besides, a half-maximal response in [2] (EC50) required 69.8 µM.

Regarding `N#Cc1ccn(-c2ccc(C(=O)Nc3cc(C4CC4)c(F)cc3C(=O)O)nn2)c1`, the ΔTm in the test listed under Homo sapiens [1] was found to be 1 °C. Also, the EC50 in test [2] stood at 29.5 µM.

In general, IC50 refers to the concentration that gives 50% inhibition. As to `N#Cc1ccn(-c2ccc(C(=O)Nc3cc(Br)c(Cl)cc3C(=O)O)nn2)c1`, the ΔTm is 8.5 °C in the test listed under Homo sapiens [1]; 6.5 °C in [3]; 13.5 °C in the test listed under Homo sapiens [4]; 7.5 °C in the test listed under Homo sapiens [5]; 7 °C in test [6]. This compound also came in with an EC50 in [2] of 2.53 µM. For the same compound, the IC50 in test [7] was determined as 1.98 µM; in [8], 3.58 µM; in test [9], 0.7 µM; in test [10], 2.03 µM; in test [11], 4.36 µM.

On to `N#Cc1ccn(-c2ccc(C(=O)Nc3cc(Br)c(F)cc3C(=O)O)nn2)c1`, for which the ΔTm in the test listed under Homo sapiens [1] worked out at 6 °C. Moreover, the EC50 in test [2] turned out to be 4.86 µM.

For `N#Cc1ccn(-c2ccc(C(=O)Nc3cc(Cl)c(Cl)cc3C(=O)O)nn2)c1`, the ΔTm in the test filed under Homo sapiens [1] is 7.5 °C; in test [3], 6 °C; in the test filed under Homo sapiens [4], 13.5 °C; in the test filed under Homo sapiens [5], 7.5 °C; in [6], 6.5 °C. Also, the EC50 in test [2] was 2.99 µM. The IC50 turned out to be 2.42 µM in test [7]; 2.77 µM in test [8]; 0.76 µM in test [9]; 2.56 µM in test [10]; 4.58 µM in test [11].

Regarding `Cc1cc(NC(=O)c2ccc(-n3ccc(C#N)c3)nn2)c(C(=O)O)cc1F`, the thermal shift (ΔTm) in the test listed under Homo sapiens [1] was 1.5 °C. The EC50 in test [2] came to 46 µM.

Take `CCc1cc(C(=O)O)c(NC(=O)c2ccc(-n3ccc(C#N)c3)nn2)cc1F`: the ΔTm in the test filed under Homo sapiens [1] was 0.5 °C. The same compound returned an EC50 in test [2] of 34.9 µM.

As for `N#Cc1ccn(-c2ccc(C(=O)Nc3cc(Cl)c(Br)cc3C(=O)O)nn2)c1`, in the test listed under Homo sapiens [1], the ΔTm was 6.5 °C. In test [2], this compound registered an EC50 of 5.11 µM.

Regarding `N#Cc1ccn(-c2ccc(C(=O)Nc3cc(F)c(Br)cc3C(=O)O)nn2)c1`, the ΔTm in the test filed under Homo sapiens [1] stood at 1 °C. Also, it took 44.2 µM to reach a half-maximal effect in [2] (EC50).

As to `N#Cc1ccn(-c2ccc(C(=O)Nc3cc(Br)c(Br)cc3C(=O)O)nn2)c1`, the ΔTm in the test filed under Homo sapiens [1] came out at 6.5 °C. The same compound came in with an EC50 in [2] of 6.33 µM.

Regarding `N#Cc1ccn(-c2ccc(C(=O)Nc3cc(F)c(F)cc3C(=O)O)nn2)c1`, the ΔTm in the test filed under Homo sapiens [1] was 3.5 °C.

On to `O=C(Nc1cc(F)c(F)cc1C(=O)O)c1ccc(-n2ccnc2)nn1`, for which the ΔTm was found to be 8.5 °C in the test filed under Homo sapiens [1], 14 °C in the test filed under Homo sapiens [4], 7.5 °C in the test filed under Homo sapiens [5] and 10 °C in [6]. Also, the IC50 worked out at 4.89 µM in [8], 0.73 µM in test [9], 5.54 µM in [10] and 2.2 µM in test [11].

As for `N#Cc1ccn(-c2ccc(C(=O)Nc3ccc(F)cc3C(=O)O)nn2)c1`, the ΔTm in the test filed under Homo sapiens [1] was 0.5 °C. The same compound had an EC50 in test [2] of more than 100 µM.

Regarding `C=Cc1cc(NC(=O)c2ccc(-n3ccc(C#N)c3)nn2)c(C(=O)O)cc1F`, in the test filed under Homo sapiens [1], the ΔTm was determined as 4.5 °C. Besides, the response in test [2] was half-maximal at 19.8 µM (EC50).

With `COc1cc(C(=O)O)c(NC(=O)c2ccc(-n3ccc(C#N)c3)nn2)cc1F`, the ΔTm in the test listed under Homo sapiens [1] is 0 °C. A half-maximal response in test [2] (EC50) required 44.3 µM.

Consider `N#Cc1ccn(-c2ccc(C(=O)Nc3cc(F)ccc3C(=O)O)nn2)c1`, for which the ΔTm in the test filed under Homo sapiens [1] was 0 °C. Besides, in [2], the EC50 is 48.1 µM.

On to `CCCn1c(NC(=O)c2cc(C)nn2C)nc2cc(C(N)=O)cc(OC3COC3)c21`, for which the ΔTm in the test filed under Homo sapiens [1] was determined as 6 °C; in test [3], 4.5 °C; in the test listed under Homo sapiens [4] it was 5 °C; in the test filed under Homo sapiens [5], 5.5 °C; in test [6], 5.5 °C. Besides, the IC50 is 3.16 µM in [7]; 2.78 µM in [8]; 3.66 µM in test [9]; 3.82 µM in test [10]; 3.75 µM in test [11].

On to `N#Cc1ccn(-c2ccc(C(=O)Nc3cc(F)c(Cl)cc3C(=O)O)nn2)c1`, for which the ΔTm in the test filed under Homo sapiens [1] was 1.5 °C. This compound also came in with a 50% effective concentration (EC50) in test [2] of 42.2 µM.

For the compound `N#Cc1ccn(-c2ccc(C(=O)Nc3cc(Cl)c(F)cc3C(=O)O)nn2)c1`, the ΔTm in the test listed under Homo sapiens [1] turned out to be 6.5 °C. In addition, a half-maximal response in [2] (EC50) required 5.17 µM.
